According to patent US20160002247A1, “8-SUBSTITUTED IMIDAZOPYRIMIDINONE DERIVATIVE HAVING AUTOTAXIN INHIBITORY ACTIVITY” (THE UNIVERSITY OF TOKYO, priority 2013, published 2016):

The molecules below were run against T1, Human autotaxin enzyme (Homo sapiens, UniProt Q13822) (assay: Evaluation of autotaxin inhibitor, Method C (Test Example 3): 18:0 Lyso PC, choline assay, Resorufin fluorescence). Conditions: Assay Method C, human autotaxin, 18:0 Lyso PC substrate; read-out: Inhibitory Activity.
T1 construct: purchased R&D System
Type: biochemical
Procedure, shortened: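 Choline-coupled fluorescence readout (20 min, resorufin at 531/598 nm) followed a 2 h room-temperature reaction of human autotaxin with 18:0 Lyso PC substrate (added as 200 μM solution) in pH 7.5 Tris buffer containing MgCl2 and Triton X-100. Percent inhibition scaled to no-compound (0%) and no-enzyme (100%) wells and plotted versus concentration.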

| IC50 [nM] | Structure (SMILES) |
| --- | --- |
| > 1000 | NC(=O)C1CCN(C(=O)Cc2cn(CCCC(F)(F)F)c3nc(-c4ccc(Cl)cc4)cn3c2=O)CC1 [Compound 837] |
| > 1000 | O=C(Cc1cn(CCCC(F)(F)F)c2nc(-c3ccc(Cl)cc3)cn2c1=O)N1CCC(O)CC1 [Compound 838] |
| 100 to 1000 | N#CCN(CC#N)C(=O)Cc1cn(CCCC(F)(F)F)c2nc(-c3ccc(Cl)cc3)cn2c1=O [Compound 839] |
| 100 to 1000 | CC(C)(C)OC(=O)NCCNC(=O)Cc1cn(CCCC(F)(F)F)c2nc(-c3ccc(Cl)cc3)cn2c1=O [Compound 840] |
| > 1000 | NC(=O)CNC(=O)Cc1cn(CCCC(F)(F)F)c2nc(-c3ccc(Cl)cc3)cn2c1=O [Compound 841] |
| 100 to 1000 | O=C(Cc1cn(CCCC(F)(F)F)c2nc(-c3ccc(Cl)cc3)cn2c1=O)NCc1cc(=O)[nH]o1 [Compound 842] |
| > 1000 | O=C(Cc1cn(CCCC(F)(F)F)c2nc(-c3ccc(Cl)cc3)cn2c1=O)NCCO [Compound 843] |
| > 1000 | O=C(Cc1cn(CCCC(F)(F)F)c2nc(-c3ccc(Cl)cc3)cn2c1=O)NCC(O)CO (centres unmarked) [Compound 844] |
| 100 to 1000 | CONC(=O)Cc1cn(CCCC(F)(F)F)c2nc(-c3ccc(Cl)cc3)cn2c1=O [Compound 845] |
| > 1000 | O=C(Cc1cn(CCCC(F)(F)F)c2nc(-c3ccc(Cl)cc3)cn2c1=O)NC1COC1 [Compound 846] |
| > 1000 | O=C1CN(C(=O)Cc2cn(CCCC(F)(F)F)c3nc(-c4ccc(Cl)cc4)cn3c2=O)CCN1 [Compound 847] |
| > 1000 | O=C(Cc1cn(CCCC(F)(F)F)c2nc(-c3ccc(Cl)cc3)cn2c1=O)N[C@@H](CO)Cc1ccccc1 [Compound 848] |
| > 1000 | CS(=O)(=O)CCNC(=O)Cc1cn(CCCC(F)(F)F)c2nc(-c3ccc(Cl)cc3)cn2c1=O [Compound 849] |
| 100 to 1000 | C[C@@H]1COC[C@H](C)N1C(=O)Cc1cn(CCCC(F)(F)F)c2nc(-c3ccc(Cl)cc3)cn2c1=O [Compound 850] |
| 100 to 1000 | CNC(=O)Cc1cn(CCCC(F)(F)F)c2nc(-c3ccc(Cl)cc3)cn2c1=O [Compound 851] |
| > 1000 | O=C(Cc1cn(CCCC(F)(F)F)c2nc(-c3ccc(Cl)cc3)cn2c1=O)N[C@H]1CCN(C2COC2)C1 [Compound 852] |
| > 1000 | CN(CC(O)CO)C(=O)Cc1cn(CCCC(F)(F)F)c2nc(-c3ccc(Cl)cc3)cn2c1=O (centres unmarked) [Compound 854] |
| > 1000 | NS(=O)(=O)CCNC(=O)Cc1cn(CCCC(F)(F)F)c2nc(-c3ccc(Cl)cc3)cn2c1=O [Compound 855] |
| > 1000 | CC(=O)CNC(=O)Cc1cn(CCCC(F)(F)F)c2nc(-c3ccc(Cl)cc3)cn2c1=O [Compound 856] |
| > 1000 | CC(C)(O)CNC(=O)Cc1cn(CCCC(F)(F)F)c2nc(-c3ccc(Cl)cc3)cn2c1=O [Compound 857] |
| 10 to 100 | O=C(Cc1cn(CCCC(F)(F)F)c2nc(-c3ccc(Cl)cc3)cn2c1=O)NCc1nn[nH]n1 [Compound 858] |
| > 1000 | N#CC(NC(=O)Cc1cn(CCCC(F)(F)F)c2nc(-c3ccc(Cl)cc3)cn2c1=O)C(N)=O (centres unmarked) [Compound 859] |
| 100 to 1000 | O=C1CCN(C(=O)Cc2cn(CCCC(F)(F)F)c3nc(-c4ccc(Cl)cc4)cn3c2=O)C1 [Compound 860] |
| 10 to 100 | CCC(CO)(CO)NC(=O)Cc1cn(CCCC(F)(F)F)c2nc(-c3ccc(Cl)cc3)cn2c1=O [Compound 861] |
| 10 to 100 | N#CC1CN(C(=O)Cc2cn(CCCC(F)(F)F)c3nc(-c4ccc(Cl)cc4)cn3c2=O)CCO1 (centres unmarked) [Compound 862] |
| 100 to 1000 | Cc1noc(CNC(=O)Cc2cn(CCCC(F)(F)F)c3nc(-c4ccc(Cl)cc4)cn3c2=O)n1 [Compound 863] |
| > 1000 | CS(=O)(=O)CCOCCNC(=O)Cc1cn(CCCC(F)(F)F)c2nc(-c3ccc(Cl)cc3)cn2c1=O [Compound 864] |
| 100 to 1000 | O=C(Cc1cn(CCCC(F)(F)F)c2nc(-c3ccc(Cl)cc3)cn2c1=O)N1CCOCC1 [Compound 865] |
| > 1000 | O=C(Cc1cn(CCCC(F)(F)F)c2nc(-c3ccc(Cl)cc3)cn2c1=O)N[C@H](CO)Cc1ccccc1 [Compound 866] |
| 10 to 100 | C[C@H]1CCCCN1C(=O)Cc1cn(CCCC(F)(F)F)c2nc(-c3ccc(Cl)cc3)cn2c1=O [Compound 867] |

| Structure (SMILES) | IC50 [nM] |
| --- | --- |
| O=C(Cc1cn(CCCC(F)(F)F)c2nc(-c3ccc(Cl)cc3)cn2c1=O)N1CCN(CCO)CC1 [Compound 853] | > 1000 |

The molecules below were run against T1, Human autotaxin enzyme (assay: Evaluation of autotaxin inhibitor, Method B (Test Example 2): TG-mTMP fluorescence). Conditions: Assay Method: Method B (Test Example 2); read-out: Inhibitory Activity (Enzyme Inhibitory Activity, IC50).
Type: biochemical
Experimental: (Method B) Evaluation of Autotaxin Inhibitor
Solution A containing 25 mM Tris-HCl buffer (pH7.5), 100 mM NaCl, 5 mM MgCl2 and 0.1% BSA was prepared. Human autotaxin enzyme (purchased from R&D System) was diluted with Solution A, and 5 μL of which was added to a solution of test compound in DMSO. Furthermore, 5 μl of 0.5 μM TG-mTMP in Solution A was added and allowed to react at room temperature for 2 hours. 5 μl of 150 mM EDTA in Solution A was added to quench the reaction, and the fluorescent dye TokyoGreen, which was produced by the reaction, was detected. The fluorescence was detected using ViewLux (PerkinElmer, Inc.) with an excitation wavelength of 480 nm and a fluorescence wavelength of 540 nm.

| IC50 [nM] | Structure (SMILES) |
| --- | --- |
| 10 to 100 | CCCCn1c(C)cc(=O)n2cc(-c3ccc(Cl)cc3)nc12 [Compound 7] |
| 10 to 100 | CCCCCCn1c(C)cc(=O)n2cc(-c3ccc(Cl)cc3)nc12 [Compound 8] |
| 10 to 100 | Cc1cc(=O)n2cc(-c3ccc(Cl)cc3)nc2n1Cc1ccccc1 [Compound 13] |
| < 10 | CCCCCn1c(C)cc(=O)n2cc(-c3ccc(Br)cc3)nc12 [Compound 18] |
| 10 to 100 | CCOCCn1c(C)cc(=O)n2cc(-c3ccc(Cl)cc3)nc12 [Compound 26] |
| 10 to 100 | CCC(=O)Cn1c(C)cc(=O)n2cc(-c3ccc(Cl)cc3)nc12 [Compound 28] |
| 10 to 100 | CC(=O)OCCn1c(C)cc(=O)n2cc(-c3ccc(Cl)cc3)nc12 [Compound 29] |
| 10 to 100 | CCCC(O)Cn1c(C)cc(=O)n2cc(-c3ccc(Cl)cc3)nc12 (centres unmarked) [Compound 42] |
| 10 to 100 | C=CCCCn1c(C)cc(=O)n2cc(-c3ccc(Cl)cc3)nc12 [Compound 43] |
| 10 to 100 | CCC/C=C/n1c(C)cc(=O)n2cc(-c3ccc(Cl)cc3)nc12 [Compound 44] |
| 100 to 1000 | Cc1cc(=O)n2cc(-c3ccc(Cl)cc3)nc2n1CCCCCO [Compound 45] |
| 100 to 1000 | Cc1cc(=O)n2cc(-c3ccc(Cl)cc3)nc2n1CC(=O)C1CC1 [Compound 50] |
| 10 to 100 | CCC(=O)C(C)n1c(C)cc(=O)n2cc(-c3ccc(Cl)cc3)nc12 (centres unmarked) [Compound 51] |
| 10 to 100 | Cc1cc(=O)n2cc(-c3ccc(Cl)cc3)nc2n1Cc1ccccc1F [Compound 53] |
| 10 to 100 | Cc1cc(=O)n2cc(-c3ccc(Cl)cc3)nc2n1C(C)c1ccccc1 (centres unmarked) [Compound 54] |
| 10 to 100 | Cc1cc(=O)n2cc(-c3ccc(Cl)cc3)nc2n1CCC(F)=C(F)F [Compound 55] |
| 10 to 100 | CCCC(C)n1c(C)cc(=O)n2cc(-c3ccc(Cl)cc3)nc12 (centres unmarked) [Compound 56] |
| 10 to 100 | Cc1cc(=O)n2cc(-c3ccc(Cl)cc3)nc2n1CC1CCCC1 [Compound 57] |
| 10 to 100 | Cc1cc(=O)n2cc(-c3ccc(Cl)cc3)nc2n1CC1CCCCC1 [Compound 58] |
| 10 to 100 | Cc1cc(=O)n2cc(-c3ccc(Cl)cc3)nc2n1CCCC(F)(F)F [Compound 59] |
| 100 to 1000 | Cc1cccc(Cn2c(C)cc(=O)n3cc(-c4ccc(Cl)cc4)nc23)c1 [Compound 60] |

| IC50 [nM] | Structure (SMILES) |
| --- | --- |
| 100 to 1000 | CC(=O)CCCn1c(C)cc(=O)n2cc(-c3ccc(Cl)cc3)nc12 [Compound 61] |
| 100 to 1000 | CCN(CC)C(=O)Cn1c(C)cc(=O)n2cc(-c3ccc(Cl)cc3)nc12 [Compound 62] |
| 100 to 1000 | Cc1ccccc1Cn1c(C)cc(=O)n2cc(-c3ccc(Cl)cc3)nc12 [Compound 64] |
| 100 to 1000 | Cc1cc(=O)n2cc(-c3ccc(Cl)cc3)nc2n1CCC(F)(F)F [Compound 65] |
| 10 to 100 | Cc1cc(=O)n2cc(-c3ccc(Cl)cc3)nc2n1CC1CC1 [Compound 66] |
| 10 to 100 | Cc1ccc(Cn2c(C)cc(=O)n3cc(-c4ccc(Cl)cc4)nc23)cc1 [Compound 67] |
| > 1000 | Cc1cc(=O)n2cc(-c3ccc(Cl)cc3)nc2n1CC(=O)NC(C)C [Compound 68] |
| > 1000 | Cc1cc(=O)n2cc(-c3ccc(Cl)cc3)nc2n1CC(=O)C1CCCCC1 [Compound 69] |
| 100 to 1000 | Cc1cc(=O)n2cc(-c3ccc(Cl)cc3)nc2n1CCN(C)C [Compound 70] |
| 10 to 100 | CCC(C)Cn1c(C)cc(=O)n2cc(-c3ccc(Cl)cc3)nc12 (centres unmarked) [Compound 71] |
| 10 to 100 | Cc1cc(=O)n2cc(-c3ccc(Cl)cc3)nc2n1CC(=O)OC(C)C [Compound 72] |
| 10 to 100 | Cc1cc(=O)n2cc(-c3ccc(Cl)cc3)nc2n1CC(=O)OC(C)(C)C [Compound 73] |
| 100 to 1000 | Cc1cc(=O)n2cc(-c3ccc(Cl)cc3)nc2n1C(C)C(=O)OC(C)(C)C (centres unmarked) [Compound 74] |
| 100 to 1000 | CCN(CC)CCn1c(C)cc(=O)n2cc(-c3ccc(Cl)cc3)nc12 [Compound 75] |
| 100 to 1000 | Cc1cc(=O)n2cc(-c3ccc(Cl)cc3)nc2n1CCOC(C)C [Compound 76] |
| 10 to 100 | Cc1cc(=O)n2cc(-c3ccc(Cl)cc3)nc2n1CC1CCC1 [Compound 77] |
| 10 to 100 | Cc1cc(=O)n2cc(-c3ccc(Cl)cc3)nc2n1CC(C)C [Compound 78] |
| 10 to 100 | Cc1cc(=O)n2cc(-c3ccc(Cl)cc3)nc2n1CCC(C)C [Compound 79] |
| 10 to 100 | CCOC(=O)C(C)n1c(C)cc(=O)n2cc(-c3ccc(Cl)cc3)nc12 (centres unmarked) [Compound 80] |
| < 10 | Cc1cc(=O)n2cc(-c3ccc(Cl)cc3)nc2n1CCCC(C)C [Compound 81] |

Same assay, conditions: Inhibitory Activity (Enzyme Inhibitory Activity, IC50), Assay Method: Method B (Test Example 2)

| IC50 [nM] | Structure (SMILES) |
| --- | --- |
| < 10 | CCCCCn1c(C)cc(=O)n2cc(-c3ccc(Cl)cc3)nc12 [Compound 3, 2-(4-chlorophenyl)-7-methyl-8-pentyl-imidazo[1,2-a]pyrimidin-5(8H)-one] |
| < 10 | CCOC(=O)Cn1c(C)cc(=O)n2cc(-c3ccc(Cl)cc3)nc12 [Compound 20] |
